Assay results: patent US20240270821A1, “GIP/GLP1/GCG TRI-RECEPTOR AGONISTS AND USES THEREOF” (priority 2023, published 2024)
Read-outs that look alike come from different tables or passages of the source. Starred links: 1 amine or outer side, 2 acyl side, 3 side chain; linkers in the order of their positions; H or OH if unused. Non-standard residues stand in square brackets, D forms with d. Residues, ends and D or L forms follow the SMILES beside them. Groups on a side chain read outwards from the residue. No end group written: not given here. *: point of attachment. C20 diacid = O=C(O)CCCCCCCCCCCCCCCCCCC(=O)*; C18 diacid = O=C(O)CCCCCCCCCCCCCCCCC(=O)*; Phe(4-CN) = N#Cc1ccc(C[C@H](N)C(=O)O)cc1; αMePhe(2-F) = C[C@](N)(Cc1ccccc1F)C(=O)O; γGlu = O=C(O)[C@H](CCC(=O)[*:2])N[*:1]; αMe4Pal = C[C@](N)(Cc1ccncc1)C(=O)O; αMeY = C[C@](N)(Cc1ccc(O)cc1)C(=O)O; αMeF = C[C@](N)(Cc1ccccc1)C(=O)O; 4Pal = N[C@@H](Cc1ccncc1)C(=O)O; αMeL = CC(C)C[C@](C)(N)C(=O)O; αMeS = C[C@](N)(CO)C(=O)O; Orn = NCCC[C@H](N)C(=O)O; AEEA = NCCOCCOCC(=O)O; Aib = CC(C)(N)C(=O)O

Legend:
Type in all cases: cell-based
human GcgR = human GcgR (Homo sapiens, UniProt P47871); assay: Functional cAMP activity in the presence of 1% HSA; details: read-out: cAMP Rel EC50, hGcgR
human GcgR, sequence (P47871 26-477): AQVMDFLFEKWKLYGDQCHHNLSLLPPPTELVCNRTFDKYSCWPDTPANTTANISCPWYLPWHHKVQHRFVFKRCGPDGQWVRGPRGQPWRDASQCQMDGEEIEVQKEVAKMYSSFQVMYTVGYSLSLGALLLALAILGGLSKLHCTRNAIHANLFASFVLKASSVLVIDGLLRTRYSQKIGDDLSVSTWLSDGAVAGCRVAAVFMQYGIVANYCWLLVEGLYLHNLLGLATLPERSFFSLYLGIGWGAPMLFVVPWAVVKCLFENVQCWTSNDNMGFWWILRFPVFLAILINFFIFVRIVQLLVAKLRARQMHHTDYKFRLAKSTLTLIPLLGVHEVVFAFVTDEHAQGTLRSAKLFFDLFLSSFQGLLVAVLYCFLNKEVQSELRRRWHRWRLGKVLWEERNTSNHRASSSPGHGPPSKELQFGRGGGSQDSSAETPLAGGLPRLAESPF

hGLP-1R [1] = target: T1, hGLP-1R (Homo sapiens, UniProt P43220); assay: Functional cAMP activity in the presence of 1% HSA; details: read-out: cAMP Rel EC50, hGLP-1R
T1 sequence (P43220 24-463): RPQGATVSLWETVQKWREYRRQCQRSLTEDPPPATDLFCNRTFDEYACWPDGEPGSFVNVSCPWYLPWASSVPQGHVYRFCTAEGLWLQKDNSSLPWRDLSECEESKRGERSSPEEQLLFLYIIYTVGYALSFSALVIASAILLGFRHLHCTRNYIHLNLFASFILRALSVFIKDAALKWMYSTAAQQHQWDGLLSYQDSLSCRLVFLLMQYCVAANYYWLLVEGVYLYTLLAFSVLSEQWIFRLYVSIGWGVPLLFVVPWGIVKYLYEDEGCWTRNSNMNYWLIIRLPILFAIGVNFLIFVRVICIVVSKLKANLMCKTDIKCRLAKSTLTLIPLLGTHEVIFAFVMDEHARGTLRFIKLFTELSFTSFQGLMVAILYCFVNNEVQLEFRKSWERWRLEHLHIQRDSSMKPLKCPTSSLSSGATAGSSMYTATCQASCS

hGcgR = hGcgR (Homo sapiens, UniProt P47871); assay: Functional cAMP activation in the presence of 0.1% casein (no HSA); details: read-out: Relative cAMP EC50, hGcgR;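 note: intracellular cAMP rise after 30 min at 37 °C, read by HTRF against a cAMP standard curve, scaled from buffer only (0%) to maximal control ligand response (100%)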
hGcgR, sequence (P47871 26-477): as the sequence (P47871 26-477) above

hGIPR [2] = target: T2, hGIPR (Homo sapiens, UniProt P48546); assay: Functional cAMP activity in the presence of 1% HSA; details: read-out: cAMP Rel EC50, hGIPR
T2 sequence (P48546 22-466): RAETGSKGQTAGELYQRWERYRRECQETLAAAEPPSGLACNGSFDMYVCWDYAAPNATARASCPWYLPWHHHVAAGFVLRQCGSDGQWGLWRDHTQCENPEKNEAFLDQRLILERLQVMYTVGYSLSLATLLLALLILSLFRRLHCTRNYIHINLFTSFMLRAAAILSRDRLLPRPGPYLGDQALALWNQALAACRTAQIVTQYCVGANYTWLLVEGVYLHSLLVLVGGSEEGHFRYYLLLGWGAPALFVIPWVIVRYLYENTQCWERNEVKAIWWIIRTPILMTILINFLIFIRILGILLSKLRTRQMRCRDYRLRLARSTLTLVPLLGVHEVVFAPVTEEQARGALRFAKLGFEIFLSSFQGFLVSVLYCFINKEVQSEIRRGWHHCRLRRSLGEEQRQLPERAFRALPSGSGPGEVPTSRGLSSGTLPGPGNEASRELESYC

hGIPR [3] = target: T2, hGIPR; assay: Functional cAMP activation in the presence of 0.1% casein (no HSA); details: read-out: Relative cAMP EC50, hGIPR;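 for Relative cAMP EC50, hGIPR: intracellular cAMP rise after 30 min at 37 °C read by HTRF against a standard curve, scaled between buffer alone (0%) and top control ligand concentration (100%), four-parameter fit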;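 for Relative cAMP EC50, hGLP-1R: intracellular cAMP rise after 30 min at 37 °C read by HTRF, normalized between buffer only (0%) and maximal control ligand (100%), four-parameter variable-slope fit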
hGLP-1R [4] = target: T1, hGLP-1R; assay: as above; details: read-out: Relative cAMP EC50, hGLP-1R
[5] = in the presence of 0.1% casein (no HSA), geometric mean
[6] = 0.1% casein, no HSA, geometric mean

EC50 (human GcgR) [nM] | EC50 (hGLP-1R [1]) [nM] | EC50 (hGcgR) [nM] | EC50 (hGIPR [2]) [nM] | EC50 (hGIPR [3]) [nM] | EC50 (hGLP-1R [4]) [nM] | Compound | EC50 (hGcgR; [5]) [nM] | EC50 (hGIPR [3]; [5]) [nM] | EC50 (hGLP-1R [4]; [5]) [nM] | EC50 (hGcgR; [6]) [nM] | EC50 (hGIPR [3]; [6]) [nM] | EC50 (hGLP-1R [4]; [6]) [nM]
2930 | 395 |  | 49.6 |  |  | H-Y[Aib]QGT[αMePhe(2-F)]TSD[Phe(4-CN)]SILLDKQAQK([AEEA-γGlu-C20 diacid])AFIQYLLEGGPSSGEPPPSEG-NH2 [Example 341] | 10.7 | 0.213 | 1.62 |  |  | 
605 | 829 |  | 28.8 |  |  | H-Y[Aib]QGTFTSDFS[Orn][αMeL]LDKK([AEEA-AEEA-γGlu-C18 diacid])AQ[Aib]AFIEYLLE[Aib]GPSSGEPPPEGS-NH2 [Example 195] | 3.1 | 0.145 | 6.13 |  |  | 
481 | 114 |  | 14.9 |  |  | Y[Aib]QGTFTSD[4Pal]SQ[αMeL]LDKK([AEEA-γGlu-C18 diacid])AQ[αMe4Pal]AFIEYLIAGGPSSGEPPPSGS-NH2 [Example 828] | 3.58 | 0.149 | 1.17 |  |  | 
889 | 18.9 |  | 18.3 |  |  | CC[C@H](C)[C@H](NC(=O)[C@H](Cc1ccccc1)NC(=O)[C@H](CCCN)NC(=O)C(C)(C)NC(=O)[C@H](CCC(N)=O)NC(=O)[C@H](C)NC(=O)[C@H](CCCCNC(=O)COCCOCCNC(=O)CC[C@H](NC(=O)CCCCCCCCCCCCCCCCC(=O)O)C(=O)O)NC(=O)[C@H](CCCN)NC(=O)[C@H](CC(=O)O)NC(=O)[C@H](CC(C)C)NC(=O)[C@](C)(CC(C)C)NC(=O)[C@H](CO)NC(=O)[C@](C)(CO)NC(=O)[C@H](Cc1ccc(O)cc1)NC(=O)[C@H](CC(=O)O)NC(=O)[C@H](CO)NC(=O)[C@@H](NC(=O)[C@](C)(Cc1ccccc1)NC(=O)[C@@H](NC(=O)CNC(=O)[C@H](CCC(N)=O)NC(=O)C(C)(C)NC(=O)[C@@H](N)Cc1ccc(O)cc1)[C@@H](C)O)[C@@H](C)O)C(=O)N[C@H](CCC(=O)O)C(=O)N[C@@](C)(Cc1ccc(O)cc1)C(=O)N[C@@H](CC(C)C)C(=O)N[C@@H](CC(C)C)C(=O)N[C@@H](CCC(=O)O)C(=O)NCC(=O)NCC(=O)N1CCC[C@H]1C(=O)N[C@@H](CO)C(=O)N[C@@H](CO)C(=O)NCC(=O)N[C@@H](CCC(=O)O)C(=O)N1CCC[C@H]1C(=O)N1CCC[C@H]1C(=O)N1CCC[C@H]1C(=O)N[C@@H](CCC(=O)O)C(N)=O [Example 389] (H-Y[Aib]QGT[αMeF]TSDY[αMeS]S[αMeL]LD[Orn]K([AEEA-γGlu-C18 diacid])AQ[Aib][Orn]FI[dE][αMeY]LLEGGPSSGEPPPE-NH2) | 4.03 | 0.0354 | 0.134 |  |  | 
587 | 326 |  | 42.3 |  |  | H-Y[Aib]QGTFTSDFSK[αMeL]LDKK([AEEA-γGlu-C20 diacid])AQ[Aib]AFIEWLLAGGPSSGEPPPSEG-NH2 [Example 20] | 15.4 | 0.381 | 2.45 |  |  | 
257 | 45.4 |  | 0.605 |  |  | Y[Aib]QGT[αMePhe(2-F)]TSD[4Pal][αMeS]I[αMeL]LD[Orn]K([AEEA-γGlu-C18 diacid])AQ[αMe4Pal]EFI[dE][αMeY]LIEGGPPS[Aib][Orn]PPP[Orn]SE-NH2 [Example 1196] |  |  |  | 1.9 | 0.00756 | 0.418
669 | 201 | 7.82 | 8.51 | 0.124 | 1.87 | H-Y[Aib]QGT[αMePhe(2-F)]TSD[4Pal]SILLDKK([γGlu-γGlu-C18 diacid])AQ[Aib]AFIEYLEEGGPSSGEPPPSGTEE-NH2 [Example 608] |  |  |  |  |  | 
579 | 161 |  | 21.3 |  |  | H-Y[Aib]QGTFTSD[4Pal]SQ[αMeL]LD[Orn]K([γGlu-γGlu-C18 diacid])AQ[αMe4Pal]AFIEYLIE[dA]GPSSGEPPPSGS-NH2 [Example 1019] | 4.36 | 0.169 | 1.33 |  |  | 
2820 | 126 |  | 95.3 |  |  | H-Y[Aib]QGT[αMePhe(2-F)]TSDYSILLDKAAQK([AEEA-γGlu-C20 diacid])[Orn]FIEYLIEGGPSSGEPPPSEG-NH2 [Example 306] | 5.8 | 0.142 | 0.335 |  |  | 
484 | 37.1 | 3.69 | 16.2 | 0.321 | 0.438 | H-Y[Aib]QGT[αMePhe(2-F)]TSD[4Pal][αMeS]ILLD[Orn]K([γGlu-γGlu-C18 diacid])AQ[Aib][Orn]FI[dE][αMeY]LQEGGPSSGEPPPSGAEE-NH2 [Example 575] |  |  |  |  |  | 

Compound | EC50 (human GcgR) [nM] | EC50 (hGLP-1R [1]) [nM] | EC50 (hGcgR) [nM] | EC50 (hGIPR [2]) [nM] | EC50 (hGIPR [3]) [nM] | EC50 (hGLP-1R [4]) [nM] | EC50 (hGcgR; [5]) [nM] | EC50 (hGIPR [3]; [5]) [nM] | EC50 (hGLP-1R [4]; [5]) [nM] | EC50 (hGcgR; [6]) [nM] | EC50 (hGIPR [3]; [6]) [nM] | EC50 (hGLP-1R [4]; [6]) [nM]
H-Y[Aib]QGT[αMePhe(2-F)]TSD[4Pal]SILLD[Orn]K([γGlu-γGlu-C18 diacid])AQ[Aib]AFIE[αMeY]LEEGGPSSGAPPPSGTGE-NH2 [Example 665] | 285 | 32.8 | 2.94 | 2.1 | 0.0223 | 0.284 |  |  |  |  |  | 
Y[Aib]QGTFTSD[4Pal]SQ[αMeL]LDKK([γGlu-γGlu-C18 diacid])AQ[αMe4Pal]AFIEYLIE[Aib]GPSSGAPPPSGS-NH2 [Example 858] | 678 | 258 |  | 13.1 |  |  | 3.44 | 0.0995 | 1.83 |  |  | 
H-Y[Aib]Q[dA]T[αMePhe(2-F)]TSD[4Pal][αMeS]I[αMeL]LD[Orn]K([AEEA-γGlu-C18 diacid])AQ[Aib]EFI[dE][αMeY]LVEGGPSSGAPPPSGS-NH2 [Example 1204] | 507 | 37.4 |  | 15.8 |  |  |  |  |  | 3.5 | 0.21 | 0.338
H-Y[Aib]QGTFTSD[4Pal]SR[αMeL]LDKK([γGlu-γGlu-C18 diacid])AQ[αMe4Pal]AFIEYLIAGGPSSGAPPPSGSEE-NH2 [Example 962] | 485 | 132 |  | 9.71 |  |  | 3.13 | 0.0972 | 1.36 |  |  | 
Y[Aib]QGTFTSD[4Pal]SQ[αMeL]LDKK([dE-γGlu-C18 diacid])AQ[αMe4Pal]AFIEYLIAGGPSSGAPPPSGEEE-NH2 [Example 1088] | 1710 | 367 |  | 15.6 |  |  | 14.8 | 0.182 | 2.99 |  |  | 
H-Y[Aib]QGTFTSD[4Pal]S[Orn][αMeL]LD[Orn]K([γGlu-γGlu-C18 diacid])AQ[αMe4Pal]EFIE[αMeY]LIEGGPSSGAPPPSGSEE-NH2 [Example 973] | 2270 | 1140 |  | 60.1 |  |  | 17.6 | 0.503 | 6.1 |  |  | 
H-Y[Aib]QGTFTSD[4Pal]SQ[αMeL]LDKK([Glu-γGlu-C18 diacid])AQ[αMe4Pal]AFIEYLIE[Aib]GPSSGAPPPSGS-NH2 [Example 894] | 2330 | 711 |  | 30.9 |  |  | 6.09 | 0.0752 | 2.01 |  |  | 
Y[Aib]QGTFTSD[4Pal]SR[αMeL]LDKK([AEEA-γGlu-C18 diacid])AQ[αMe4Pal]AFIEYLIEGGESSGAPPPSGS-NH2 [Example 792] | 376 | 619 |  | 108 |  |  | 1.91 | 0.55 | 2.99 |  |  | 
Y[Aib]QGTFTSD[4Pal]SQ[αMeL]LDKK([Glu-γGlu-C18 diacid])AQ[αMe4Pal]AFIEYLIAGGPSSGAPPPSGE-NH2 [Example 1086] | 3140 | 496 |  | 21.2 |  |  | 12 | 0.117 | 1.23 |  |  | 
